Measured values taken from patent US11584744B2 (UNIVERSITY OF WASHINGTON, priority 2017, dated 2023).
≈ marks a conversion by molar mass, not a printed value. Where “and” joins values, the source holds several entries; their conditions need not be identical. Equal entries are not always repeated. Where two headings read alike, the source gives them in different places.

Legend:
[1] = test system: S. aureus VISA (ATCC 700699); experiment: MIC susceptibility testing; format: cell-based; conditions: Staphylococcus aureus; read-out: S. aureus VISA (ATCC 700699) MIC
Method in brief: (§1)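 CLSI broth microdilution with two-fold compound dilutions, in triplicate; cells added in medium at 1×10^6 CFUs/mL, DMSO ≤0.5%. Media: MHB for S. aureus, CA-MHB for E. coli and E. faecium, CA-MHB plus 3% laked horse blood for S. pyogenes (5% CO2).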

[2] = test system: S. aureus MSSA (ATCC 29213); experiment: MIC susceptibility testing; format: cell-based, Staphylococcus aureus; conditions: for MIC: Staphylococcus aureus
[3] = test system: S. aureus MRSA (ATCC 33591); experiment: MIC susceptibility testing; format: cell-based, Staphylococcus aureus; conditions: for MIC: Staphylococcus aureus
Method in brief: as §1

[4] = Cytotoxicity testing on mammalian cells (AlamarBlue, 48 hours); format: cell-based; conditions: human
Protocol: Cytotoxicity testing on mammalian cells: Compounds were assayed for cytotoxicity against CRL-8155 (human lymphoblasts) and HepG2 cells (human hepatocellular carcinoma). Cells were exposed to serial dilutions of compounds for 48 hours and toxicity was quantified using AlamarBlue (ThermoFisher Scientific, Waltham, Mass.). Assays were performed in quadruplicate and EC50 values were calculated with non-linear regression methods using software by the Collaborative Drug Database (Burlingame, Calif. www.collaborativedrug.com)

[5] = Protein binding assays, equilibrium dialysis; format: in vitro ADME, mouse; conditions: 1 μM, equilibrium dialysis 22 hours
Protocol: Protein binding assays: Compound binding to mouse plasma proteins was determined using 96-well equilibrium dialyzer plates (SDIS 9610EN, Nest Group, Inc.). Mouse plasma ([…]-SW-F, BioreclamationIVT, Westbury, N.Y.) containing compound (final concentration 1 μM) was added to a donor chamber as a 150 μL volume. The buffer solution (0.2 mM phosphate buffer, 150 μL) was added to the reciprocal acceptor chamber. Each compound was tested in triplicate. To prepare calibration solution for compound quantifications, blank wells were prepared containing only mouse plasma in a donor well and buffer solution in its acceptor well. The equilibrium dialysis was carried out by rocking the plate for 22 hours in 37° C. Once equilibrium was reached, the plasma and buffer solution from both wells were carefully removed for further analysis with liquid chromatography-tandem mass spectrometry. Plasma solution and internal standard were mixed in the presence of 80% acetonitrile. After centrifuging the solution, the supernatant was transferred to an insert. Similarly, the buffer solution from the acceptor side was prepared containing 40% acetonitrile. Calibration standards for donor and acceptor sides were prepared with compound concentrations of 50 nM, 100 nM, 250 nM, 500 nM, and 1 μM. The compound concentrations from each well were calculated from the calibration curves using Microsoft Excel. The percentage of the test compound bound was determined as follows: % Free=(Concentration buffer chamber/Concentration plasma chamber)×100% % Bound=100%−% Free

S. aureus (ATCC 29213) = experiment: MBC determinations (with MIC); format: cell-based; conditions: Staphylococcus aureus, ATCC29213, S. aureus (ATCC 29213); for MIC: MBC experiment (Table 5), read-out: MIC; for MBC: concentration killing 99.9% of inoculum, read-out: MBC
Protocol: Maximum DMSO concentrations were 0.5%. […] Each experiment's inoculum was serially diluted and plated on TSA to count competent cells. Cultures were incubated at 37° C. for at least 20 h and plated on TSA for CFU determination.
MIC/MBC: Measurements of minimum bactericidal concentrations (MBCs) were done with the S. aureus strain ATCC 29213 (Table 5).

T. cruzi = T. cruzi growth inhibition; format: cell-based, Trypanosoma cruzi; conditions: read-out: (E) T. cruzi EC50
MetRS (T. brucei) = target: T1, MetRS (T. brucei) (Trypanosoma brucei brucei, UniProt Q38C91); experiment: MetRS (T. brucei) enzyme inhibition; format: biochemical
T1 sequence (Q38C91 1-773): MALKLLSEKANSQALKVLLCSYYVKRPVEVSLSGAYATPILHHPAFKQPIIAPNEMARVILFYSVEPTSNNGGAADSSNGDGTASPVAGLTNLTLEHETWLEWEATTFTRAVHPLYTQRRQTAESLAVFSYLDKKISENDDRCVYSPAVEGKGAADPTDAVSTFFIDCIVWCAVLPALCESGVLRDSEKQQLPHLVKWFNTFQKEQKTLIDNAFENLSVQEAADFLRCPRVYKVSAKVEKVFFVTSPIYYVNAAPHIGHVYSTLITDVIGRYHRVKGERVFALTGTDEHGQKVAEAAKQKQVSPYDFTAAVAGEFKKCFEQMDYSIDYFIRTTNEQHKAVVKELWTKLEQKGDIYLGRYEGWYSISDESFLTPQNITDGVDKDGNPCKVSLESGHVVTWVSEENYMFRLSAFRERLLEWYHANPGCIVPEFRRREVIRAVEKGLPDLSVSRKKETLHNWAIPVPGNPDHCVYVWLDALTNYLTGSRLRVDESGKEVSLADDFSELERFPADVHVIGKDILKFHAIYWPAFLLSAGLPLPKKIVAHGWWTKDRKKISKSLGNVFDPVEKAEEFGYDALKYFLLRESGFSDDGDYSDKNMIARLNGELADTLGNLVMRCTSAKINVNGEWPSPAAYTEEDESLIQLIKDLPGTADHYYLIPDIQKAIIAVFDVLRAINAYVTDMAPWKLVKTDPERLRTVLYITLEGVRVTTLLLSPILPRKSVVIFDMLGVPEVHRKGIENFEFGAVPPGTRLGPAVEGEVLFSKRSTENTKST

[6] = 18 h, read-out: S. aureus MSSA (ATCC 29213) MIC
[7] = read-out: S. aureus MRSA (ATCC 33591) MIC
[8] = CRL-8155 cells (human lymphoblasts), read-out: Mamm. cells (CRL8155) CC50
[9] = HepG2 cells (human hepatocellular carcinoma), read-out: Mamm. cells (HepG2) CC50
[10] = MRSA ATCC33591, read-out: (G) MRSA (ATCC33591) MIC

SMILES	MIC [1]	MIC [2, 6]	MIC [3, 7]	CC50 at 48 h [4, 8]	CC50 at 48 h [4, 9]	% binding to mouse plasma [5]	MIC ([2]; read-out: MIC against S. aureus)	MIC (S. aureus (ATCC 29213))	MBC (S. aureus (ATCC 29213))	EC50 (T. cruzi; Trypanosoma cruzi)	EC50 (T. cruzi)	IC50 (MetRS (T. brucei))	(G) MRSA (ATCC33591) MIC ([3]; MRSA ATCC33591)	MIC [3, 10]	(F) S. aureus (ATCC 29213) MIC ([2]; S. aureus ATCC 29213)	MIC ([2]; S. aureus ATCC 29213, read-out: (F) S. aureus (ATCC 29213) MIC)
Fc1ccc2nc(NCCCNCc3cc(Cl)cc(Cl)c3)[nH]c2n1 [Compound 1614, [(3,5-dichlorophenyl)methyl][3-({5-fluoro-3H-imidazo[4,5-b]pyridin-2-yl}amino)propyl]amine]	10 µg/mL (≈ 27.2 µM)	2.5 µg/mL (≈ 6.79 µM)	5 µg/mL (≈ 13.6 µM)	14.8 µg/mL (≈ 40.2 µM)	> 18.4 µg/mL	96.5%										
Fc1ccc2nc(NCCCN[C@@H]3CCNc4c(Cl)cc(Cl)cc43)[nH]c2n1 [Compound 1717, (4R)-6,8-dichloro—N-[3-({5-fluoro-3H-imidazo[4,5-b]pyridin-2-yl}amino)propyl]-1,2,3,4-tetrahydroquinolin-4-amine, reference compound]	0.156 µg/mL (≈ 0.381 µM)	0.156 µg/mL (≈ 0.381 µM)	0.078 µg/mL (≈ 0.191 µM)	5.8 µg/mL (≈ 14.2 µM)	10.4 µg/mL (≈ 25.4 µM)	97.6%	0.156 µg/mL (≈ 0.381 µM)	0.156 µg/mL (≈ 0.381 µM)	5 µg/mL (≈ 12.2 µM)							
CCn1c(Cc2ccc(Cl)cc2Cl)cn(Cc2nc3nc(F)ccc3[nH]2)c1=O [Compound 2062, 4-[(2,4-dichlorophenyl)methyl]-3-ethyl-1-({5-fluoro-1H-imidazo[4,5-b]pyridin-2-yl}methyl)-2,3-dihydro-1H-imidazol-2-one]		0.078 µg/mL (≈ 0.186 µM)		> 21 µg/mL	> 21 µg/mL	99.4%				85.2 nM	98.9 nM and 90.8 nM	< 40 nM				
CCn1c(Cc2ccc(OC)cc2Cl)cn(Cc2nc3nc(Cl)ccc3[nH]2)c1=O [Compound 2093, 1-({5-chloro-1H-imidazo[4,5-b]pyridin-2-yl}methyl)-4-[(2-chloro-4-methoxyphenyl)methyl]-3-ethyl-2,3-dihydro-1H-imidazol-2-one]	0.313 µg/mL (≈ 0.724 µM)	0.039 µg/mL (≈ 0.0902 µM)	0.313 µg/mL (≈ 0.724 µM)	> 21.6 µg/mL	> 21.6 µg/mL	99.9%		0.078 µg/mL (≈ 0.18 µM)	1.25 µg/mL (≈ 2.89 µM)	8.28 nM	5.81 nM	< 40 nM	0.225 µg/mL	0.123 µg/mL (≈ 0.285 µM)		
CCn1c(Cc2ccc(OC)cc2Cl)cn(Cc2nc3nc(F)ccc3[nH]2)c1=O [Compound 2114, 4-[(2-chloro-4-methoxyphenyl)methyl]-3-ethyl-1-({5-fluoro-1H-imidazo[4,5-b]pyridin-2-yl}methyl)-2,3-dihydro-1H-imidazol-2-one]		0.313 µg/mL (≈ 0.753 µM)		> 20.8 µg/mL	> 20.8 µg/mL					25.9 nM	23.2 nM	< 40 nM		1.53 µg/mL (≈ 3.68 µM)	0.192 µg/mL	0.129 µg/mL (≈ 0.31 µM)
COc1cc(Cl)c(-c2cccc3nc(Cc4nc5nc(Cl)ccc5[nH]4)cn23)cc1OC [Compound 2144, 2-({5-chloro-1H-imidazo[4,5-b]pyridin-2-yl}methyl)-5-(2-chloro-4,5-dimethoxyphenyl)imidazo[1,2-a]pyridine]	0.039 µg/mL (≈ 0.0858 µM)	0.0195 µg/mL (≈ 0.0429 µM)	0.039 µg/mL (≈ 0.0858 µM)	> 11.3 µg/mL	> 11.3 µg/mL	98.4%		0.01 µg/mL (≈ 0.022 µM)	0.313 µg/mL (≈ 0.689 µM)	13.5 nM	7.79 nM	< 40 nM	0.0216, μg/mL	0.033 µg/mL (≈ 0.0726 µM)		
CC(=O)NC[C@H]1CN(c2ccc(N3CCOCC3)c(F)c2)C(=O)O1 [LNZ, linezolid]	1.25 µg/mL (≈ 3.71 µM)	2.5 µg/mL (≈ 7.41 µM)	1.25 µg/mL (≈ 3.71 µM)	> 33.7 µg/mL	> 33.7 µg/mL	39.5%		2.5 µg/mL (≈ 7.41 µM)	160 µg/mL (≈ 474 µM)							
